Literature values, collected in patent US9801827B2, “Dosage forms for administering combinations of drugs” (Pozen Inc., priority 2006, dated 2017).

Settings: pharmacokinetic half-life, given as examples of long acting NSAIDs

**Q.** With O=C(O)CCc1nc(-c2ccccc2)c(-c2ccccc2)o1 [oxaprozin] as the compound, how does the half-life read?
**A.** 42 to 50 h

**Q.** With Cc1cccc(Nc2ccccc2C(=O)O)c1C [mefenamic acid] as the compound, how does the half-life read?
**A.** up to 4 hours

**Q.** For CCc1cccc2c3c([nH]c12)C(CC)(CC(=O)O)OCC3 (stereo not drawn) [etodolac], which half-life is on record?
**A.** about 7 hours

**Q.** For O=C(c1ccccc1)c1ccc2n1CCC2C(=O)O (stereo not drawn) [ketorolac], which half-life is on record?
**A.** 8 to 9 h

**Q.** For COc1ccc2cc(CCC(C)=O)ccc2c1 [nabumetone], which half-life is on record?
**A.** 22 to 30 h

**Q.** For CC(C(=O)O)c1ccc(-c2ccccc2)c(F)c1 (stereo not drawn) [flurbiprofen], which half-life is on record?
**A.** about 6 hours
